In US20190144942A1, “METHODS FOR IDENTIFYING AND MODULATING IMMUNE PHENOTYPES” (priority 2016, published 2019):
“Also recorded” adds a separate entry of the source. Read-outs that look alike come from different tables or passages of the source.

Columns and labels:
Type in all cases: cell-based, human
[1] = test system: cluster 1-like/CD64^Hi,PD-L1^Hi cDCs; assay: Acquisition of the CD64Hi,PD-L1Hi cDC phenotype in elite controller cells exposed to virus with inhibitory drugs (flow cytometry)
[2] = test system: cluster 1-like/CD64^Hi,PD-L1^Hi cDCs
[3] = test system: cluster 1-like/CD64^Hi,PD-L1^Hi cDCs; assay: Induction of CD64Hi,PD-L1Hi cDCs in PBMCs incubated with TLR3 agonist and nanoparticle-encapsulated HIV-1 Gag DNA, without live virus; conditions: PBMCs from healthy (HIV-negative) individuals; 2 μg/ml Poly I:C and/or polymer nanoparticles loaded with 100 nucleotide HIV-1 Gag DNA; no live virus
Protocol: PBMC or isolated cDCs were stained with LIVE/DEAD cell blue viability dye (Invitrogen, Carlsbad, Calif.) and monoclonal antibodies directed against CD11c (Biolegend), CD14 (BD), HLA-DR, CD64, PDL-1, ICAM1, CD16, SLAMF8 (Biolegend) and subsequently analyzed on a Fortessa cytometer (BD Biosciences, San Jose, Calif.). For intracellular cytokine staining, cells were treated with a commercial fixation/permeabilization kit (BioLegend) according to the manufacturer's protocol. Data were analyzed with FlowJo software (Tree Star). cDCs were identified from bulk PBMCs as a population of viable CD14^− lymphocytes expressing high levels of CD11c and HLA-DR.
Finally, Applicants explored how Applicants might further exploit this TBK1-dependent innate immune sensing pathway to boost the fraction of cDCs acquiring the cluster 1 phenotype without exposure to live virus. For this purpose, Applicants incubated PBMCs from healthy individuals or ECs simultaneously with a TLR3 agonist (Poly(I:C)) and single- or double-stranded HIV-1 Gag DNA (ssDNA or dsDNA, respectively) encapsulated in polymeric nanoparticles. […]

## O=C(N[C@H](Cc1ccccc1)C(=O)O)c1sc2cc(F)ccc2c1Cl [TLR3 inhibitor]
[1]; elite controllers (ECs), virus plus TLR3 or TLR4 antagonist vs DMSO, p=0.0^2, Wilcoxon matched-pairs signed-rank test
  acquisition of the cluster 1/CD64^Hi,PD-L1^Hi cDC phenotype: modest, but significant, effect

## O=C(NCCCNc1nc(Nc2cccc(NC(=O)N3CCCC3)c2)ncc1I)c1cccs1 [BX795]
[1]; EC PBMCs, 1 μM BX795 added at the time of viral addition, p=0.0020, Wilcoxon signed-rank test
  induction of the cluster 1-like/CD64^Hi,PD-L1^Hi population: dramatic and significant abrogation

## Poly(I:C)
[2]
  proportion of CD64^Hi PDL1^Hi cells among cDCs: significantly induce
[2]; 24 hours
  proportion of cluster 1-like/CD64^Hi,PD-L1^Hi cDCs: significantly induce; also recorded: induced a larger population; also recorded: significant increase
[3]
  proportion of cluster 1-like/CD64^Hi,PD-L1^Hi cDCs: insufficient
